Data set [1] in a line: Aerial oxidation of the phosphines in aqueous solution, followed by 31P{1H} NMR. The data set is classed as physicochemical. Particulars: for Oxidation percentage over time: distilled water, 5.10^-2 mM, open to air, vigorous stirring; for oxidize in the air: 5·10^-2 mM aqueous solution, room temperature. As to the method: 4. Aerial oxidation of the phosphines in aqueous solution
Solutions in distilled water (1 mL, 5.10^-2 mM ) of the phosphines represented below were prepared with the aim of comparing their inertness against aerial oxidation. The solutions were kept opened to air under vigorous stirring for 120 h. Aliquots were taken and analyzed by ^31P{^1H} NMR in order to quantify the oxidation progress.

Data set [2] in a line: Determination of water solubility of the sodium salts of the phosphines. Type of data set: physicochemical. The note with it: saturated supernatant evaporated to dryness and weighed. As for the experimental part:
3. Determination of water solubility of trifluoromethylated sulfonated phosphines of Formula (I)
Oversaturated aqueous solutions of the sodium salts of the phosphines of Formula (I) were prepared. The supernatant solution was ultracentrifugated, and then filtered through a nylon filter, a measured weight of this solution was evaporated to dryness and the solid residue was weighed.

Take `O=S(=O)([O-])c1cccc(P(c2ccccc2)c2cccc(S(=O)(=O)[O-])c2)c1.[Na+].[Na+]` [Na2TPPDS]: the “Oxidation percentage over time” value is reported as 0% in data set [1] (0 h), 6% in data set [1] (16 h), 33% in data set [1] (40 h) and 100% in data set [1] (120 h). Also, in data set [1] (16 h), the “oxidize in the air” value is recorded as “about 5%”.

Turning to `O=S(=O)([O-])c1cccc(P(c2ccccc2)c2ccccc2)c1.[Na+]` [NaTPPMS, triphenylphosphine monosulfonate], the “Oxidation percentage over time” value in data set [1] (0 h) is reported as 0%; in data set [1] (16 h), 4%; in data set [1] (40 h), 25%; in data set [1] (120 h), 68%. Moreover, the “oxidize in the air” value in data set [1] (16 h) is given as “about 5%”.

With `O=S(=O)(O)c1cccc(P(c2cccc(S(=O)(=O)O)c2)c2ccccc2C(F)(F)F)c1` [Phosphine 3], in data set [2], the solubility (thermodynamic) is 30 mg/mL.

For `O=S(=O)(O)c1cccc(P(c2ccc(C(F)(F)F)cc2)c2ccc(C(F)(F)F)cc2)c1` [Phosphine 4], the thermodynamic solubility in data set [2] is 2 to 12 mg/mL.

Consider `O=S(=O)(O)c1cccc(P(c2cc(C(F)(F)F)cc(C(F)(F)F)c2)c2cc(C(F)(F)F)cc(C(F)(F)F)c2)c1` [Phosphine 5], for which the solubility (thermodynamic) in data set [2] lay in the range of 2 to 12 mg/mL.

Consider `O=S(=O)(O)c1cccc(P(c2ccccc2C(F)(F)F)c2ccccc2C(F)(F)F)c1` [Phosphine 6], for which the solubility (thermodynamic) in data set [2] was in the range of 2 to 12 mg/mL.

Take `O=S(=O)(O)c1cccc(P(c2ccccc2)c2ccc(C(F)(F)F)cc2)c1` (centres unmarked) [Phosphine 7]: in data set [2], the thermodynamic solubility worked out at 500 mg/mL.

With `O=S(=O)(O)c1cccc(P(c2ccccc2)c2cc(C(F)(F)F)cc(C(F)(F)F)c2)c1` (centres unmarked) [Phosphine 8], the thermodynamic solubility in data set [2] was more than 1000 mg/mL.

On to `O=S(=O)(O)c1cccc(P(c2ccccc2)c2ccccc2C(F)(F)F)c1` (centres unmarked) [Phosphine 9], for which the solubility (thermodynamic) in data set [2] amounted to 210 mg/mL.

Values taken from patent EP2319852A1, “Triphenylphosphine derivatives” (Universitat Autònoma De Barcelona, priority 2009, dated 2011).
